Laboratory results as given in patent US10925876B2, “Methods for using triazolo-pyrazinyl soluble guanylate cyclase activators in fibrotic disorders” (Merck Sharp & Dohme Corp., priority 2016, dated 2021).

How the values were obtained:
[1] = IV Cassette PK Assay in rats; type: in vivo; conditions: rat, male Wistar-Han rats, plasma, read-out: Cassette PK T1/2 (hr), Imidazo-Pyrazinyl Analog (converted)
Experimental: The results were obtained using the following the procedure:
Adult male Wistar-Han rats were fasted overnight and administered a cassette IV dose of mixture of several compounds via a previously implanted catheter in the femoral vein. Animals were allowed access to food 4 h post dose. Blood samples were collected into EDTA-containing tubes at the following time points: 0.03, 0.13, 0.25, 0.5, 1, 2, 4, 8 h post-dose. Blood samples were stored on ice until plasma was harvested by centrifugation. Plasma was transferred to a 96-well plate and stored at −20° C. until analysis. Concentrations of each compound in rat plasma were determined by LC-MS/MS following protein precipitation.

sGC α1/β1 heterodimer = target: T1, sGC α1/β1 heterodimer (Homo sapiens, UniProt Q02108+Q02153); assay: Cell-Based sGC Functional Assay (CASA Assay), cGMP generation in CHO-K1/sGC cells;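 also: reference Compound A is a published heme-dependent sGC activator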; conditions: maximum cGMP production of Compound A set to 100% activation, read-out: % Act. (percent activation relative to Compound A)
T1 construct: expressed in transfected cells
T1 sequence (Q02108 1-690): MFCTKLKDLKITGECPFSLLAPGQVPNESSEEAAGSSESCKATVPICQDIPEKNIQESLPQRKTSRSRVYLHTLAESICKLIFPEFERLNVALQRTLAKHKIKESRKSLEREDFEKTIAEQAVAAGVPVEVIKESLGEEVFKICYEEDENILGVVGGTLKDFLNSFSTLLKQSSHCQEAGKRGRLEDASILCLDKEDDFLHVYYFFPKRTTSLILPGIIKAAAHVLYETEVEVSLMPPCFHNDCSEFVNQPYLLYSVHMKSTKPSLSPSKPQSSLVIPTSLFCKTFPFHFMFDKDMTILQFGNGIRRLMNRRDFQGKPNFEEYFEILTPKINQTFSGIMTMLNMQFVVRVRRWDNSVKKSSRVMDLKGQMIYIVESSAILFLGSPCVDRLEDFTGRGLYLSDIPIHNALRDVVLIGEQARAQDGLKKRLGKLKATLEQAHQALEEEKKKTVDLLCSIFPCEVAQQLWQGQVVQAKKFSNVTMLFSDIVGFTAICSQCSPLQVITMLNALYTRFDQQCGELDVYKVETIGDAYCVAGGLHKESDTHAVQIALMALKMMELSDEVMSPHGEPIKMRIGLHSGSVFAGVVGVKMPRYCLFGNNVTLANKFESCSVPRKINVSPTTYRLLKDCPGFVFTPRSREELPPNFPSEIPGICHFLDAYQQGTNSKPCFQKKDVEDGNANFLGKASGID
T1 sequence (Q02153 1-619): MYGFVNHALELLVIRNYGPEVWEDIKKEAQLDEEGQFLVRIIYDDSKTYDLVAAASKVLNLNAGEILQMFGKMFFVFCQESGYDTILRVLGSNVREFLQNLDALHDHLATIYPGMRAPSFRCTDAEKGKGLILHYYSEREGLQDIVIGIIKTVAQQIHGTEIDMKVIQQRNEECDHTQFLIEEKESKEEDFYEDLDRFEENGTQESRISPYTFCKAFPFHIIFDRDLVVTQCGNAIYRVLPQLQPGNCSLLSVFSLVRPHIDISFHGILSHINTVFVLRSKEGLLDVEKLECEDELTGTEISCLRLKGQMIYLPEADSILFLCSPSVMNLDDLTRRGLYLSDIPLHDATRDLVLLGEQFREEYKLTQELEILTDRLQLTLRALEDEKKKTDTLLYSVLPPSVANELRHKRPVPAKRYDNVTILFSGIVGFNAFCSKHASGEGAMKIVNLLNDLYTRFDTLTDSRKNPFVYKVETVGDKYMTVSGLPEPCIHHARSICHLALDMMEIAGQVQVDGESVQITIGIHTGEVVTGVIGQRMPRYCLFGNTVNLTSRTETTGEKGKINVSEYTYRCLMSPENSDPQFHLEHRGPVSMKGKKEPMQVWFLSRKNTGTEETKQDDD
Summary of the method: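 CHO-K1 cells stably expressing human sGC α1/β1, 4×10^5/mL in EBSS with 5 mM MgCl2, 10 mM HEPES, 0.05% BSA, 0.5 mM IBMX, 2.5% DMSO; compounds 1 h at 37 °C ± 1 μM DETA-NO. cGMP by HTRF, expressed as % of reference Compound A maximum; IP and max fold induction from 4P fit.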

[2] = system: Spontaneously hypertensive rats (SHR); assay: Acute Efficacy in Spontaneously Hypertensive Rats (SHR), telemetry blood pressure; type: in vivo, rat; conditions: single oral gavage
Summary of the method: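 Male SHR fitted with aortic telemetry transmitters and recovered 14 days; conscious blood pressure sampled 30 s every 10 min. Single oral gavage dose (vehicle 10% transcutol/20% Cremophor/70% water); hourly SBP change versus prior-day vehicle baseline, reported as maximum peak decrease.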

| half-life [1] [h] | Emax (sGC α1/β1 heterodimer) [%] | Compound | Maximum peak decrease of systolic blood pressure (SBP) in SHR, Cat. ([2]; P.O. 0.3 mpk) | Maximum peak decrease of systolic blood pressure (SBP) in SHR, Cat. ([2]; P.O. 1 mpk) | Maximum peak decrease of systolic blood pressure (SBP) in SHR, Cat. ([2]; P.O. 3 mpk) |
| --- | --- | --- | --- | --- | --- |
| 2.12 |  | Nc1nc(-c2cn3ccnc3c(CCCC(F)(F)F)n2)nc2c1C(c1ccc(C(F)F)cn1)(C1CC1)C(=O)N2 (stereo not drawn) |  |  |  |
|  | 96 | COc1ccc(C2(C3CC3)C(=O)Nc3nc(-c4cn5ncnc5c(CCCC(F)(F)F)n4)nc(N)c32)nc1 (stereo not drawn) [Example 39A, 4-amino-5-cyclopropyl-5-(5-methoxypyridin-2-yl)-2-(8-(4,4,4-trifluorobutyl)-[1,2,4]triazolo[1,5-a]pyrazin-6-yl)-5H-pyrrolo[2,3-d]pyrimidin-6(7H)-one] | B (Category B=SBP in SHRs 20-40 mmHg) |  |  |
| 1.41 |  | CC1(c2ccc(F)cn2)C(=O)Nc2nc(-c3cn4ccnc4c(CCC(F)(F)C(F)(F)F)n3)nc(N)c21 (stereo not drawn) |  |  |  |
|  | 101 | CC(C)Cc1nc(-c2nc(N)c3c(n2)NC(=O)[C@@]3(C)c2ccc(F)cc2)cn2ncnc12 [Example 73A, (S)-4-amino-5-(4-fluorophenyl)-2-(8-isobutyl-[1,2,4]triazolo[1,5-a]pyrazin-6-yl)-5-methyl-5,7-dihydro-6H-pyrrolo[2,3-d]pyrimidin-6-one] |  | B (Category B=SBP in SHRs 20-40 mmHg) |  |
|  | 111 | Nc1nc(-c2cn3ncnc3c(CCCC(F)(F)F)n2)nc2c1C(c1ccc(C(F)(F)F)cn1)(C1CC1)C(=O)N2 (single isomer, unassigned) [Example 2A, 4-Amino-5-cyclopropyl-2-(8-(4,4,4-trifluorobutyl)-[1,2,4]triazolo[1,5-a]pyrazin-6-yl)-5-(5-(trifluoromethyl)pyridin-2-yl)-5H-pyrrolo[2,3-d]pyrimidin-6(7H)-one] | A (Category A=SBP in SHRs <20 mmHg) |  |  |
|  | 177 | Nc1nc(-c2cn3ncnc3c(CCC(F)(F)C(F)(F)F)n2)nc2c1C(c1cncc(F)c1)(C1CC1)C(=O)N2 (stereo not drawn) [Example 8B, 4-amino-5-cyclopropyl-5-(5-fluoropyridin-3-yl)-2-(8-(3,3,4,4,4-pentafluorobutyl)-[1,2,4]triazolo[1,5-a]pyrazin-6-yl)-5H-pyrrolo[2,3-d]pyrimidin-6(7H)-one] |  |  | B (Category B=SBP in SHRs 20-40 mmHg) |
|  | 164 | CC1(c2nnc(C3CC3)o2)C(=O)Nc2nc(-c3cn4ncnc4c(CCC(F)(F)C(F)(F)F)n3)nc(N)c21 (stereo not drawn) [Example 98B, 4-amino-5-(5-cyclopropyl-1,3,4-oxadiazol-2-yl)-5-methyl-2-(8-(3,3,4,4,4-pentafluorobutyl)-[1,2,4]triazolo[1,5-a]pyrazin-6-yl)-5H-pyrrolo[2,3-d]pyrimidin-6(7H)-one] |  | B (Category B=SBP in SHRs 20-40 mmHg) |  |
|  | 76 | Nc1nc(-c2cn3ncnc3c(CCC(F)(F)C(F)(F)F)n2)nc2c1C(c1nnc(C3CC3)o1)(C1CC1)C(=O)N2 (stereo not drawn) [Example 107A, 4-amion-5-cyclopropyl-5-(5-cyclopropyl-1,3,4-oxadiazol-2-yl)-2-(8-(3,3,4,4,4-pentafluorobutyl)-[1,2,4]triazolo[1,5-a]pyrazin-6-yl)-5H-pyrrolo[2,3-d]pyrimidin-6(7H)-one] |  |  | C (Category C=SBP in SHRs >40 mmHg) |
|  | 108 | NC(=O)c1nc(-c2cn3ncnc3c(CCCC(F)(F)F)n2)nc2c1C(c1ccc(C(F)(F)F)cn1)(C1CC1)C(=O)N2 (stereo not drawn) [Example 178A] |  | B (Category B=SBP in SHRs 20-40 mmHg) |  |
|  | 120 | C[C@@]1(c2ccc(F)cc2)C(=O)Nc2nc(-c3cn4ncnc4c(CCC(F)(F)F)n3)nc(O)c21 [Example 151A, (S)-5-(4-fluroophenyl)-4-hydroxy-5-methyl-2-(8-(3,3,3-trifluoropropyl)-[1,2,4]triazolo[1,5-a]pyrazin-6-yl)-5,7-dihydro-6H-pyrrolo[2,3-d]pyrimidin-6-one] |  |  | B (Category B=SBP in SHRs 20-40 mmHg) |
|  | 69 | CC1(c2ccc(F)cn2)C(=O)Nc2nc(-c3cn4ncnc4c(CCCC(F)(F)F)n3)nc(O)c21 (stereo not drawn) [Example 136B, 5-(5-fluoropyridin-2-yl)-4-hydroxy-5-methyl-2-(8-(4,4,4-trifluorobutyl)-[1,2,4]triazolo[1,5-a]pyrazin-6-yl)-5H-pyrrolo[2,3-d]pyrimidin-6(7H)-one] |  |  | B (Category B=SBP in SHRs 20-40 mmHg) |
|  | 222 | CC1(c2ccc(Cl)c(F)c2)C(=O)Nc2nc(-c3cn4ncnc4c(CCC(F)(F)C(F)(F)F)n3)nc(O)c21 (stereo not drawn) [Example 121B, 5-(4-chloro-3-fluorophenyl)-4-hydroxy-5-methyl-2-(8-(3,3,4,4,4-pentafluorobutyl)-[1,2,4]triazolo[1,5-a]pyrazin-6-yl)-5H-pyrrolo[2,3-d]pyrimidin-6(7H)-one] |  | B (Category B=SBP in SHRs 20-40 mmHg) |  |
|  | 161 | CC1(c2ccc(Cl)cn2)C(=O)Nc2nc(-c3cn4ncnc4c(CCC(F)(F)C(F)(F)F)n3)nc(N)c21 (stereo not drawn) [Example 3A, 4-amino-5-(5-chloropyridin-2-yl)-5-methyl-2-(8-(3,3,4,4,4-pentafluorobutyl)-[1,2,4]triazolo[1,5-a]pyrazin-6-yl)-5H-pyrrolo[2,3-d]pyrimidin-6(7H)-one] | B (Category B=SBP in SHRs 20-40 mmHg) |  |  |
|  | 74 | CC1(c2cn(C3CC3)nn2)C(=O)Nc2nc(-c3cn4ncnc4c(CCC(F)(F)C(F)(F)F)n3)nc(N)c21 (stereo not drawn) [Example 95B, 4-Amino-5-(1-cyclopropyl-1H-1,2,3-triazol-4-yl)-5-methyl-2-(8-(3,3,4,4,4-pentafluorobutyl)-[1,2,4]triazolo[1,5-a]pyrazin-6-yl)-5H-pyrrolo[2,3-d]pyrimidin-6(7H)-one] | C (Category C=SBP in SHRs >40 mmHg) |  |  |
|  | 122 | Nc1nc(-c2cn3ncnc3c(CCC(F)(F)C(F)(F)F)n2)nc2c1C(c1ccccn1)(C1CC1)C(=O)N2 (stereo not drawn) [Example 114A, 4-amino-5-cyclopropyl-2-(8-(3,3,4,4,4-pentafluorobutyl)-[1,2,4]triazolo[1,5-a]pyrazin-6-yl)-5-(pyridin-2-yl)-5,7-dihydro-6H-pyrrolo[2,3-d]pyrimidin-6-one] |  | B (Category B=SBP in SHRs 20-40 mmHg) |  |
|  | 109 | CC1(c2ccc(C3CC3)nc2)C(=O)Nc2nc(-c3cn4ncnc4c(CCC(F)(F)C(F)(F)F)n3)nc(N)c21 (stereo not drawn) [Example 13B, 4-amino-5-(6-cyclopropylpyridin-3-yl)-5-methyl-2-(8-(3,3,4,4,4-pentafluorobutyl)-[1,2,4]triazolo[1,5-a]pyrazin-6-yl)-5H-pyrrolo[2,3-d]pyrimidin-6(7H)-one] |  | B (Category B=SBP in SHRs 20-40 mmHg) |  |
